Assay results from patent EP0714404B1, “ANTI-INFLAMMATORY PEPTIDES” (CURATIVE TECHNOLOGIES, INC., priority 1993, dated 1995).
Read-outs that look alike come from different tables or passages of the source. Residues, ends and D or L forms follow the SMILES beside them.

Key:
[1] = system: Arachidonic Acid Induced Myeloperoxidase Activity in Mouse Ear; test: myeloperoxidase activity in AA-treated mouse ear tissue (marker for PMNs); format: in vivo, mice; details: minipump
Description: Myeloperoxidase activity in ear tissue was measured as a marker for the presence or absence of polymorphonuclear leukocytes (PMNs) (Barone et al., 1991, J. Neurosci. Res. 29:336-345). After measurement of ear thickness, ears were dissected from the mice and homogenized in 50mM Tris-HCL, pH 7.4 at 4°C to give a 10% (w/v) homogenate. Aliquots of the homogenate were used to determine the amount of myeloperoxidase activity present in the tissue using o-dianisidine (Sigma Chem Co., St. Louis MO) and hydrogen peroxide as substrates and monitoring chromophore generation at 460 nm (Barone et al., 1991, J. Neurosci. Res. 29:336-345).

[2] = acute toxicity in rats; format: in vivo; details: rats, 100, 500 or 1,000 mg/kg
Description: Rats were dosed with CT-112 (SEQ. ID NO: 1) at 100, 500 or 1,000 mg/kg. […] All rats returned to normal appearance the day after treatment.

[3] = system: Delayed Type Hypersensitivity; format: in vivo, mice
Description: CT-112 (SEQ. ID NO: 1) was tested for its ability to modulate the immune response in a mouse model of delayed hypersensitivity (Filipp et al., 1984, Allergy, 39: 499-507; Diezel et al., 1989 J. Invest. Dermatol. 93:322-326). The mice used in this study were 8-wk old hairless females (Jackson Laboratories). The mice were sensitized to a contact allergen (1-chloro-2,4-dinitrobenzene, DNCB) by painting the dorsothoracic region twice daily for 5 consecutive days with 50 µl of 0.5% DNCB in 75% acetone:25% vegetable oil. The animals were allowed to rest for 24 hr prior to challenge with DNCB. On the sixth day after initiation of the sensitization treatments, the animals were challenged with 50 µl of DNCB solution applied to the left ear. After 24 hrs, the ear thickness was determined and compared to the unchallenged ear.
The treatment groups were as follows: • a) PBS control; • b) Prednisone (intraperitoneal injection of 25 mg/kg, 2 hr prior to challenge); • c) 7-day pump (60 mg CT-112/kg/24 hr); • d) CT-112 (intraperitoneal injections of 60 mg/kg/injection at 3, 1, and 0.25 hr prior to challenge and 3, 6 and 21 hr post-challenge); • e) DMSO control (topical application of 50 µl at 3, 1 and 0.25 hr prior to challenge; and • f) CT-112 in DMSO (20 mg/ml, topical application of 50 µl at 3, 1, and 0.25 hr prior to challenge and 3, 6 and 21 hr post-challenge).

[4] = system: mouse bone marrow polychromatic erythrocyte; test: mouse bone marrow polychromatic erythrocyte micronucleus assay; format: in vivo; details: 62.5, 125 and 250 mg/kg; after 24, 48 or 72 hr
[5] = system: Inflammatory Cell Influx; test: carrageenan-induced model of peritonitis, inflammatory cell influx; format: in vivo, Mice; details: pump 60 mg CT-112/kg/day
Description: (§1) Mice (C57BL/6UAF, females, 12 weeks old) were implanted with Alzet mini pumps set to deliver 60 mg CT-112/kg/day. Six days post-implantation, the mice were challenged with an intraperitoneal injection of 0.3 ml of carrageenan in PBS (10 mg/ml). The peritoneal cavity was lavaged with 15 ml of Hank's Balanced Salt Solution (Ca^2+- and Mg^2+-free) at 24, 48 and 72 hr post-challenge. The lavage fluid was centrifuged (500 g, 5 min), fixed with LeukoStat fixative and stained with LeukoStat staining solution. The slides were analyzed under a microscope for the different types of inflammatory cells, such as macrophages, lymphocytes and neutrophils. At the 48-hr time point, 5 control mice were also lavaged.

[6] = system: neutrophils; test: neutrophil chemotaxis to leukotriene B4 (Neuroprobe chambers); format: cell-based; details: fluorescence at 530 nm, 1 hr; FIGURE 4
Description: (§2) The ability of CT-112 (SEQ. ID NO: 1) to inhibit chemotaxis of neutrophils in response to a variety of agents was assessed using Neuroprobe chemotaxis chambers. For these assays, neutrophils were resuspended in Hank's balanced salt solution with Ca^2+ and Mg^2+ to give a 5 x 10^6 cells/ml suspension after the cells were labeled with 1',7'-bis(2-carboxyethyl)-5-(6)-carboxyfluorescein. The neutrophils were exposed to CT-112 (SEQ. ID NO: 1) for approximately 15 min prior to addition to the chemotaxis chambers. CT-112 (SEQ. ID NO: 1) was present in both the top and bottom of the chambers, and the chemoattractant, either f-Met-Leu-Phe, leukotriene B4 or interleukin-8, was added to the bottom of chamber. Cells which had migrated through the membrane were determined by fluorescence at 530 nm at 1 hr after initiation of the assay.

[7] = acute toxicity in mice; format: in vivo; details: intravenous 100, 500 or 1,000 mg/kg
Description: Acute toxicity of CT-112 (SEQ. ID NO: 1) in mice and rats was assessed. Mice were dosed by intravenous injection with CT-112 (SEQ. ID NO: 1) at 100, 500 or 1,000 mg/kg.

[8] = system: Salmonella; test: Salmonella reverse mutation assay; format: cell-based; details: 100-5,000 µg/ml, with or without rat liver microsomal enzyme activation
Description: The mutagenic potential of CT-112 (SEQ. ID NO: 1) has been assessed.

[9] = system: leukotriene B4 (LTB4); test: carrageenan peritonitis, LTB4 content of peritoneal lavage fluid; format: in vivo, Mice; details: 60 mg/kg/day; 24 hr post-challenge
Description: as §1
In a separate study, the peritoneal lavage fluid was analyzed for total leukotriene B4 (LTB4) and prostaglandin E2 (PGE2) content at 24 hr post-challenge (Griswold et al., 1991, Biochem. Pharmacol. 42(4):825-831).

[10] = system: neutrophils; test: neutrophil chemotaxis to f-Met-Leu-Phe (Neuroprobe chambers); format: cell-based; details: fluorescence at 530 nm, 1 hr; FIGURE 3
Description: as §2

**Q.** With CC(C)[C@H](NC(=O)[C@H](CCC(N)=O)NC(=O)[C@H](CO)NC(=O)[C@@H](NC(=O)[C@@H](N)[C@@H](C)O)[C@@H](C)O)C(=O)N[C@@H](CCCNC(=N)N)C(=O)N1CCC[C@H]1C(=O)N[C@@H](CCCNC(=N)N)C(=O)O [CT-112, Thr-Thr-Ser-Gln-Val-Arg-Pro-Arg] (H-TTSQVRPR-OH) as the molecule, how does the “Myeloperoxidase Activity” value ([1]; 0.05 mg/animal/day) read?
**A.** Its value is 19.6 ± 15.6 µmole of chromophore formed/min.

**Q.** And the “Myeloperoxidase Activity” value ([1]; 0.1 mg/animal/day)?
**A.** Its value is 17.0 ± 9.6 µmole of chromophore formed/min.

**Q.** And the “Myeloperoxidase Activity” value ([1]; 1.0 mg/animal/day)?
**A.** Its value is 14.7 ± 13.3 µmole of chromophore formed/min.

**Q.** What about the lesions at necropsy [2] of the same molecule?
**A.** Its lesions at necropsy is “No lesions were visible”.

**Q.** And the “mean body weight or mean body weight gain” value ([2]; control vs treated)?
**A.** Its value is “no statistical differences”.

**Q.** What about the clinical effects ([2]; several rats at 500 and 1,000 mg/kg, day of treatment) of the same molecule?
**A.** Its clinical effects is “Transient clinical effects (hypoactivity, hypersensitiviy, staggered gait, cyanosis and absence of righting reflex)”.

**Q.** And the “Thickness Difference (Left-Right)” value ([3]; 7-day pump, 60 mg CT-112/kg/24 hr)?
**A.** Its value is 0.00087 ± 0.000398 in.

**Q.** And the “Thickness Difference (Left-Right)” value ([3]; ip 60 mg/kg/injection at 3, 1, 0.25 hr prior and 3, 6, 21 hr post-challenge)?
**A.** The value was 0.00169 ± 0.000643 in.

**Q.** What about the “Thickness Difference (Left-Right)” value ([3]; topical, 20 mg/ml in DMSO, 50 µl at 3, 1, 0.25 hr prior and 3, 6, 21 hr post-challenge) of the same molecule?
**A.** Its value is 0.0035 ± 0.000408 in.

**Q.** What about the micronuclei [4] of the same molecule?
**A.** Its micronuclei is “did not induce a significant increase”.

**Q.** What about the “Absolute Cell Number Lymphocytes” value ([5]; 24 hr post carrageenan) of the same molecule?
**A.** The value was 16.9 ± 5.9.

**Q.** And the “Absolute Cell Number Macrophages” value ([5]; 24 hr post carrageenan)?
**A.** Its value is 19.5 ± 10.

**Q.** What about the “Absolute Cell Number Neutrophils” value ([5]; 24 hr post carrageenan) of the same molecule?
**A.** Its value is 106 ± 29.

**Q.** What about the “Absolute Cell Number Lymphocytes” value ([5]; 48 hr post carrageenan) of the same molecule?
**A.** The value was 12.5 ± 7.6.

**Q.** And the “Absolute Cell Number Macrophages” value ([5]; 48 hr post carrageenan)?
**A.** The value was 126 ± 43.

**Q.** What about the “Absolute Cell Number Neutrophils” value ([5]; 48 hr post carrageenan) of the same molecule?
**A.** Its value is 134 ± 77.

**Q.** What about the “Absolute Cell Number Lymphocytes” value ([5]; 72 hr post carrageenan) of the same molecule?
**A.** The value was 45.1 ± 42.

**Q.** And the “Absolute Cell Number Macrophages” value ([5]; 72 hr post carrageenan)?
**A.** Its value is 255 ± 125.

**Q.** And the “Absolute Cell Number Neutrophils” value ([5]; 72 hr post carrageenan)?
**A.** Its value is 48.4 ± 28.

**Q.** And the “chemotactic migration of neutrophils to LTB4” value [6]?
**A.** The value was “effectively inhibited”.

**Q.** And the lesions at necropsy [7]?
**A.** Its lesions at necropsy is “No lesions were visible”.

**Q.** What about the “mean body weight or mean body weight gain” value ([7]; control vs treated) of the same molecule?
**A.** The value was “no statistical differences”.

**Q.** What about the clinical effects ([7]; one mouse at 500 and two at 1,000 mg/kg, day of treatment) of the same molecule?
**A.** Its clinical effects is “Minimal transient clinical effects (hypoactivity and hypersensitivity)”.

**Q.** And the “number of revertants (histidine independent growth)” value [8]?
**A.** Its value is “did not cause an increase”.

**Q.** What about the LTB4 [9] of the same molecule?
**A.** The LTB4 was 16.8 ± 11.5(5) pg in peritoneal lavage.

**Q.** What about the “chemotactic migration of neutrophils to f-Met-Leu-Phe” value [10] of the same molecule?
**A.** The value was “effectively inhibited”.
